As a reminder, the IC50 is the concentration that gives 50% inhibition. Higher therefore signals a need for much substance.

The record followed here is patent US20230172923A1, “METHODS OF TREATING CYTOKINE-RELATED ADVERSE EVENTS” (BRISTOL-MYERS SQUIBB COMPANY, priority 2020, published 2023).

Bounds are passed on as bounds.

Assay type in all cases: cell-based, human
The test system of one test is IL-6. Briefly: LPS-induced IL-6 secretion from PBMCs, overnight pre-treatment (MSD). The following applies: overnight 1000 nM lenalidomide, 100 nM pomalidomide, 10 nM iberdomide or 1 nM Compound 1; LPS 24 hours. The procedure:
(§1) Fresh PBMCs isolated from healthy volunteers were seeded at a concentration of 1×10^6 cells/ml and treated with the indicated concentration of IMiD drugs/CELMoD agents or DMSO overnight before stimulation with the indicated concentration of LPS. After 24 hours, the cell culture media was collected and IL-6, TNF-alpha and IL1-beta levels in the supernatant were assessed using an MSD assay. ULOQ = Upper limit of quantification.
(§2) Fresh peripheral blood mononuclear cells (PBMCs) were isolated from the blood (buffy coat) of healthy human volunteers by Ficoll based cell separation. The isolated PBMCs were seeded at a concentration of 1×10^6 cells/ml and treated with 1000 nM lenalidomide, 100 nM pomalidomide, 10 nM iberdomide, 1 nM Compound 1 (CC-92480) or control DMSO, overnight (~17 hours). The next morning, the PBMCs were stimulated with various concentrations of LPS (Lipopolysaccharides from Escherichia coli O111:B4).
(§3) After 24 hours, the cell culture media was collected from the control and stimulated cells, spun down at 300 g for 5 minutes to remove cells and the supernatant was subjected to cytokine analysis to quantify secreted levels of IL-6, TNF-alpha (TNF-α) and IL1-beta (IL-1β) using an MSD assay (see e.g. FIGS. 8A-C).

The next test deals with TNF-alpha. Nature of the test: LPS-induced TNF-alpha secretion from PBMCs, overnight pre-treatment (MSD). The following applies: overnight 1000 nM lenalidomide, 100 nM pomalidomide, 10 nM iberdomide or 1 nM Compound 1; LPS 24 hours. The procedure: as §1, §2, §3
The next test relates to IL1-beta. Briefly: LPS-induced IL1-beta secretion from PBMCs, overnight pre-treatment (MSD). The following applies: overnight 1000 nM lenalidomide, 100 nM pomalidomide, 10 nM iberdomide or 1 nM Compound 1; LPS 24 hours. Here is the method: as §1, §2, §3
The test system of another test is OPM-2 cells. Nature of the test: CC-93269 mediated cytotoxicity assay with chronically stimulated T-cells, OPM-2 target cells (IncuCyte). Particulars: anti-CD3/CD28 7 days with 100 nM pomalidomide, 10 nM iberdomide or 1 nM CC-92480; CC-93269 47 pM; E:T 1:2. Here is the method: Cell growth kinetics of A) NCI-H929 and B) OPM-2 cells in CC-93269 (47 pM) cytotoxicity assays on the IncuCyte® S3 Live-Cell Analysis System. Healthy donor T-cells were used as effector cells with or without chronic stimulation with anti-CD3/CD28 (7 days) in the presence of DMSO or CM agents (100 nM Pomalidomide, 10 nM CC-220 or 1 nM CC-92480). T-cells and NCI-H929 cells were co-cultured at E:T ratios of 1:4 (NCI-H929) or 1:2 (OPM-2). […] In contrast, prior exposure to CM agents prevented functional TBMS cell exhaustion and CC-93269 activity was similar or better to those observed with freshly thawed T-cells. Values shown represent the mean ± standard deviation of AUC values of 2-3 replicates from the same experiment.
To evaluate the effects of Cereblon modulating (CM) agents on T-cell function after chronic stimulation (i.e. mimicking T cell exhaustion), CD3+ enriched healthy donor T-cells were stimulated with anti-CD3/CD28 in the presence of DMSO (control), 100 nM pomalidomide, 10 nM iberdomide (CC-220) or 1 nM Compound 1 (CC-92480) for 7 days. Prolonged and repetitive anti-CD3/CD28 stimulation of T-cells results in functional T-cell exhaustion in vitro.
The chronically stimulated T-cells were then used in CC-93269 mediated cytotoxicity assays with NCI-H929 or OPM-2 multiple myeloma (MM) target cells. The T-cells were washed to remove compounds, and mixed with fluorescently labelled MM cell lines (NCI-H929, OPM-2) at optimized effector-to-target (E:T) ratios (1:2 or 1:4) in the presence of fixed concentrations of CC-93269 (47 pM). Freshly thawed T-cells (i.e. non-exhausted T-cells) from the same donor were used as control effector cells. In this experimental cytotoxicity assay setup, the number of target cells was continuously monitored using the IncuCyte® S3 Live-Cell Analysis System for a minimum of 10 days. Cell culture supernatants were taken from wells from subsequent CC-93269 mediated cytotoxicity assays at 3 days after mixing with MM target cells. CD3+ T cells from 2 or 3 independent healthy donors were tested for each MM cell line.

The next test has as its system GM-CSF. Briefly: LPS-stimulated PBMC cytokine production, multiplex cytokine analysis: GM-CSF. The following applies: Homo sapiens, PBMC, PBMC 2×10^6 cells/ml, compound 1 hour, then 1 ng/ml LPS 18 hours. The procedure: (§4) Peripheral blood mononuclear cells (PBMCs) were isolated from the blood of healthy human donors by Ficoll cell separation. […] Supernatant samples were subjected to multiplex cytokine analysis (Luminex IS100 instrument) to quantify secreted levels of IL-6, IL-8, IL1-beta (IL-1β), GM-CSF, MDC, MIP-1alpha (MIP-1α), MIP-1beta (MIP-1β) and TNF-alpha (TNF-α) (see e.g. FIGS. 7A-C). IC50 (half maximal inhibitory concentration) values were calculated to measure the potency of each IMiD compound in inhibiting LPS-stimulated secretion of each cytokine (see Table 25).

Another test deals with MIP-1α. Briefly: LPS-stimulated PBMC cytokine production, multiplex cytokine analysis: MIP-1α. The following applies: Homo sapiens, PBMC, PBMC 2×10^6 cells/ml, compound 1 hour, then 1 ng/ml LPS 18 hours. The procedure:
Peripheral blood mononuclear cells (PBMCs) were isolated from the blood of healthy human donors by Ficoll cell separation. The PBMCs were seeded at a concentration of 2×10^6 cells/ml and treated for 1 hour at 37° C. with various concentrations of IMiD compounds or control DMSO (0.25%), before stimulation with 1 ng/ml LPS for 18 hours at 37° C.
Supernatant samples were subjected to multiplex cytokine analysis (Luminex IS100 instrument) to quantify secreted levels of IL-6, IL-8, IL1-beta (IL-1β), GM-CSF, MDC, MIP-1alpha (MIP-1α), MIP-1beta (MIP-1β) and TNF-alpha (TNF-α) (see e.g. FIGS. 7A-C).
IC50 (half maximal inhibitory concentration) values were calculated to measure the potency of each IMiD compound in inhibiting LPS-stimulated secretion of each cytokine (see Table 25).

A further test deals with MIP-1β. Nature of the test: LPS-stimulated PBMC cytokine production, multiplex cytokine analysis: MIP-1β. The following applies: Homo sapiens; PBMC 2×10^6 cells/ml, compound 1 hour, then 1 ng/ml LPS 18 hours. The procedure: as §4

`N#Cc1ccc(N2CCN(Cc3ccc(COc4cccc5c4CN(C4CCC(=O)NC4=O)C5=O)cc3)CC2)c(F)c1` (stereo not drawn) [Compound 1, 4-(4-(4-(((2-(2,6-dioxopiperidin-3-yl)-1-oxoisoindolin-4-yl)oxy)methyl)benzyl)piperazin-l-yl)-3-fluorobenzonitrile]: in the test with IL-6, the “LPS-induced secretion of IL-6 from PBMCs” value is “reduces”. In addition, the “LPS-induced secretion of TNF-α from PBMCs” value with TNF-alpha is on record as “reduces”. In addition, the “LPS-induced secretion of IL-1β from PBMCs” value in the test with IL1-beta was “reduces”. For the same compound, the “cytolytic function of chronically stimulated T-cells in CC-93269-directed killing of OPM-2 cells” value (“cytolytic function” below) with OPM-2 cells is on record as “beneficial effects on the cytolytic function of T-cells”.
Consider `O=C1CC[C@H](N2Cc3c(OCc4ccc(CN5CCOCC5)cc4)cccc3C2=O)C(=O)N1` [Iberdomide, (S)-3-(4-((4-(morpholinomethyl)benzyl)oxy)-1-oxoisoindolin-2-yl)piperidine-2,6-dione], for which the IC50 was 0.0022 µM in the test with GM-CSF, 0.028 µM in the test on MIP-1α and > 10 µM with MIP-1β. Further, in the test with IL-6, the “LPS-induced secretion of IL-6 from PBMCs” value is “reduces”. In the test on TNF-alpha, the “LPS-induced secretion of TNF-α from PBMCs” value was “reduces”. In addition, the “LPS-induced secretion of IL-1β from PBMCs” value in the test on IL1-beta was “reduces”. Further, the “cytolytic function” value with OPM-2 cells is listed as “beneficial effects on the cytolytic function of T-cells”.
Take `Nc1cccc2c1CN(C1CCC(=O)NC1=O)C2=O` (stereo not drawn) [Lenalidomide, 3-(4-amino-1-oxo-2,3-dihydro-1H-isoindol-2-yl) piperidine-2,6-dione]: the IC50 with GM-CSF, in the test with MIP-1α and in the test on MIP-1β was > 10 µM throughout. Further, the “LPS-induced secretion of IL-6 from PBMCs” value with IL-6 was “reduces”. Moreover, in the test with TNF-alpha, the “LPS-induced secretion of TNF-α from PBMCs” value is “reduces”. Moreover, in the test on IL1-beta, the “LPS-induced secretion of IL-1β from PBMCs” value is given as “reduces”.
`Nc1cccc2c1C(=O)N(C1CCC(=O)NC1=O)C2=O` (stereo not drawn) [Pomalidomide, 4-amino-2-(2,6-dioxopiperidine-3-yl)isoindoline-1,3-dione]: the IC50 with GM-CSF is 1.5 µM; with MIP-1α it was 0.23 µM; with MIP-1β, > 10 µM. Moreover, the “LPS-induced secretion of IL-6 from PBMCs” value with IL-6 was “reduces”. Besides, in the test on TNF-alpha, the “LPS-induced secretion of TNF-α from PBMCs” value is given as “reduces”. In addition, the “LPS-induced secretion of IL-1β from PBMCs” value in the test with IL1-beta is reported as “reduces”. Besides, the “cytolytic function” value in the test on OPM-2 cells is “beneficial effects on the cytolytic function of T-cells”.
